From ChEMBL document CHEMBL1148556, “Synthesis and preliminary biological evaluation of (2S,1'R,2'S)- and (2S,1'S,2'R)-2-(2'-phosphonocyclopropyl)glycines, two novel conformationally constrained l-AP4 analogues” (Bioorg Med Chem Lett, 2006)

How the values were obtained:
[1] = target: Metabotropic glutamate receptor 5 (Rattus norvegicus, UniProt P31424); test: Activity at rat mGluR5 by measuring intracellular calcium concentration in CHO cells; format: functional, cell-based
[2] = target: T1, Metabotropic glutamate receptor 4 (Rattus norvegicus, UniProt P31423); test: Displacement of [3H]L-AP4 from rat mGluR4 expressed in BHK cells; format: cell-based
[3] = target: T1, Metabotropic glutamate receptor 4; test: Functional activity at rat mGluR4
[4] = target: Metabotropic glutamate receptor 8 (Rattus norvegicus, UniProt P70579); test: Displacement of [3H]LY341495 from rat mGluR8 expressed in BHK cells; format: cell-based
[5] = target: Metabotropic glutamate receptor 1 (Rattus norvegicus, UniProt P23385); test: Activity at rat mGluR1 by measuring intracellular calcium concentration in CHO cells; format: functional, cell-based
[6] = target: Metabotropic glutamate receptor 6 (Rattus norvegicus, UniProt P35349); test: Activity at rat mGluR6 by measuring cAMP formation in CHO cells; format: functional, cell-based
[7] = target: Metabotropic glutamate receptor 2 (Homo sapiens, UniProt Q14416); test: Activity at human mGluR2 from BHK cells in [35S]GTP-gamma-S stimulation assay; format: functional, cell-based
[8] = target: Metabotropic glutamate receptor 7 (Homo sapiens, UniProt Q14831); test: Activity at human mGluR7 by measuring cAMP formation in BHK cells; format: functional, cell-based
Sequence of Metabotropic glutamate receptor 7 (Q14831 whole entry): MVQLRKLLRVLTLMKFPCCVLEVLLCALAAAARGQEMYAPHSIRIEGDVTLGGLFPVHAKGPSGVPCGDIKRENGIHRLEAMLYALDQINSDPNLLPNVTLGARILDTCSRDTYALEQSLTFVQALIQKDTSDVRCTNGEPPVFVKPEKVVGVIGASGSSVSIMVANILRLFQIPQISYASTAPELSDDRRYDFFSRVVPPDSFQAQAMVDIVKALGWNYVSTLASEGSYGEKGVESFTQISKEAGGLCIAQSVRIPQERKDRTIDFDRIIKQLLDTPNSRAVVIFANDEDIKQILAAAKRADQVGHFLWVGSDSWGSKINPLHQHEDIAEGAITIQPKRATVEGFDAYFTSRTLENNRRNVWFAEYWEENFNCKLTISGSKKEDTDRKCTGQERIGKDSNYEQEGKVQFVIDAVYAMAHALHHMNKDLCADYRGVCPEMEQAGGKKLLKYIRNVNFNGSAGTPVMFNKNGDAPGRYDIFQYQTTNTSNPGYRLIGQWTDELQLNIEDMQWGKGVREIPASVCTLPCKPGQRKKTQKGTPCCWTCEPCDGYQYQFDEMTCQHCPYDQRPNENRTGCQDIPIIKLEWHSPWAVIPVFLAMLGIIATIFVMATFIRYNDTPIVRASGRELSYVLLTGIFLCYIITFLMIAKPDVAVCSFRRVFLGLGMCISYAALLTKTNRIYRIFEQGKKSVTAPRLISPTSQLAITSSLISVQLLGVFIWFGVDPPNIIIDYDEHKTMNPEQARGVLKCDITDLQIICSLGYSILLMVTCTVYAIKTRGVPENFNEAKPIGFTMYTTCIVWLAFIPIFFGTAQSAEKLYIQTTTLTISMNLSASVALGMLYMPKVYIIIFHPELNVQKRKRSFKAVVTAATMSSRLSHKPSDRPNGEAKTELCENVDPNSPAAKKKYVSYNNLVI

T1 sequence (P31423 whole entry): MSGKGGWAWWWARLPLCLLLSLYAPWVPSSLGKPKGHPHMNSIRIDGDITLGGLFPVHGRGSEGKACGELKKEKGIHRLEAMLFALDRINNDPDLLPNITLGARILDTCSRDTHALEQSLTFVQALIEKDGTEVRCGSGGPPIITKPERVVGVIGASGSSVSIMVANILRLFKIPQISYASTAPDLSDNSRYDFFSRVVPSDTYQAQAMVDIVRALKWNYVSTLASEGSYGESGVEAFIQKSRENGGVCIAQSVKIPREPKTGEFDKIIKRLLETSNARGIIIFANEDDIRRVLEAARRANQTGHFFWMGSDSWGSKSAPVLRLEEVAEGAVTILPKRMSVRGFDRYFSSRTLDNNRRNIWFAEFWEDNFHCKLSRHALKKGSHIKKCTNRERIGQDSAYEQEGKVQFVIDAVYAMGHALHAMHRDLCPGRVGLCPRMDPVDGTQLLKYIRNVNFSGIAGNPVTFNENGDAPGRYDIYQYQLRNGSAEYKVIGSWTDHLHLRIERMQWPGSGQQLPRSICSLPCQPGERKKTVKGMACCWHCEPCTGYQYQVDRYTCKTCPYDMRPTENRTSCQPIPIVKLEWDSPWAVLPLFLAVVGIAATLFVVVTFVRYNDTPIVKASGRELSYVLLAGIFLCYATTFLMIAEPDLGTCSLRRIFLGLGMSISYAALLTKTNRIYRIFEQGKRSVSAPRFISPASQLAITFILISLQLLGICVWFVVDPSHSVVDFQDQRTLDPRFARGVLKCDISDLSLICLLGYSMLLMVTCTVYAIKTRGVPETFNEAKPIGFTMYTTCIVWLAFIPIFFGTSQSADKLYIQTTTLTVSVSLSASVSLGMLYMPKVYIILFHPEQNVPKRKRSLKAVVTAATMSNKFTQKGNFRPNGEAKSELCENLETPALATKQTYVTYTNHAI
Sequence of Metabotropic glutamate receptor 1 (P23385 whole entry): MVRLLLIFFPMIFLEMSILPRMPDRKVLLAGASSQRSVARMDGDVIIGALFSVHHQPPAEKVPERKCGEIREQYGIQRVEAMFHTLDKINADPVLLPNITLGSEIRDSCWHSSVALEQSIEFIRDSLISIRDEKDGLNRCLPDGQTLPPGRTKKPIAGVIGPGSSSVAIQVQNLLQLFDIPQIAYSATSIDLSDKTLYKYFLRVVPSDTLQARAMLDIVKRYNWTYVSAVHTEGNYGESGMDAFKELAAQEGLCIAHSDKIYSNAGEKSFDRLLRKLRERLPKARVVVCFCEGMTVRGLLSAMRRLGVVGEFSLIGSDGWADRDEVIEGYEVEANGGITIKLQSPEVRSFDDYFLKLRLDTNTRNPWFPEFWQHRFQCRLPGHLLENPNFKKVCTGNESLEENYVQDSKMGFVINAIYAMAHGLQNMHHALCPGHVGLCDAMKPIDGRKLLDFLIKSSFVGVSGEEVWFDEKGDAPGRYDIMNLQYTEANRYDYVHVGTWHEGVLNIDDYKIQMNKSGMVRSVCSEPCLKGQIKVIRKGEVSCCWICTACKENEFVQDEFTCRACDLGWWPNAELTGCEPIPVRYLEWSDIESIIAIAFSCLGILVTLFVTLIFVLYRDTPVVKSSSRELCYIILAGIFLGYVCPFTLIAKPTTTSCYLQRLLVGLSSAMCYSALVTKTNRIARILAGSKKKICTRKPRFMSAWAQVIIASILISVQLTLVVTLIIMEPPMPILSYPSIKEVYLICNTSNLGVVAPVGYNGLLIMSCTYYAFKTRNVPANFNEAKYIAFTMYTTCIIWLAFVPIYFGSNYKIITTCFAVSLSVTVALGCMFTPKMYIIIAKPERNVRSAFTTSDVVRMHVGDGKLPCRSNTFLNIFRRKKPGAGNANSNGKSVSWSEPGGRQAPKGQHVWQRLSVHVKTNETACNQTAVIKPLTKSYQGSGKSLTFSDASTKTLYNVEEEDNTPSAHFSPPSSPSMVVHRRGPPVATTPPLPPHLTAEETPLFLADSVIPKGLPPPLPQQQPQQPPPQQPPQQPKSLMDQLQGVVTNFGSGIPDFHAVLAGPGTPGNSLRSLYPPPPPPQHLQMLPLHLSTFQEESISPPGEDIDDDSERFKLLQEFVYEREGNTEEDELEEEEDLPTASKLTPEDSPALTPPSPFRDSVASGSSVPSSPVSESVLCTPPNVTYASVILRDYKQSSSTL
Sequence of Metabotropic glutamate receptor 2 (Q14416 whole entry): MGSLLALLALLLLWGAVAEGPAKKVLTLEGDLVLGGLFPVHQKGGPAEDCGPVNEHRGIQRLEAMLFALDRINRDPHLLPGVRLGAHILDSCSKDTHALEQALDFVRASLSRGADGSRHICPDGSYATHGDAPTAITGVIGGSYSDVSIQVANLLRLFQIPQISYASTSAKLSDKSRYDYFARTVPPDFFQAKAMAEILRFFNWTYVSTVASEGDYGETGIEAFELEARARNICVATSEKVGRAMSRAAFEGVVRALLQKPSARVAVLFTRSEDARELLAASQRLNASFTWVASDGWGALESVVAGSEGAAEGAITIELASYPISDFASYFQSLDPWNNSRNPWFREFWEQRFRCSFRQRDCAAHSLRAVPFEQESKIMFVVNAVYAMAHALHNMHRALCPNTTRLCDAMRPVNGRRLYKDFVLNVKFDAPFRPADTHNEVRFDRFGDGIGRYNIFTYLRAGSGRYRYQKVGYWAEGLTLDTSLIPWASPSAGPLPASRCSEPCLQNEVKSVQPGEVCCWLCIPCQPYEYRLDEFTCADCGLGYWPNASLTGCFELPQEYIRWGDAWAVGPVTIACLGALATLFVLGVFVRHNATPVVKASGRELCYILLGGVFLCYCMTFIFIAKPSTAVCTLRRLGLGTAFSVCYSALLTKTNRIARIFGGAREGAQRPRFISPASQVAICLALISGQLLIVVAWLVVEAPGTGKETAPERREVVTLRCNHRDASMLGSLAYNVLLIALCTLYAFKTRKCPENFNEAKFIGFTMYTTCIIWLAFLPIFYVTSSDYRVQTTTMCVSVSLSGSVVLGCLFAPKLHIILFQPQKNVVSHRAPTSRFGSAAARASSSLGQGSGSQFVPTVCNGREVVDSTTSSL
Sequence of Metabotropic glutamate receptor 6 (P35349 whole entry): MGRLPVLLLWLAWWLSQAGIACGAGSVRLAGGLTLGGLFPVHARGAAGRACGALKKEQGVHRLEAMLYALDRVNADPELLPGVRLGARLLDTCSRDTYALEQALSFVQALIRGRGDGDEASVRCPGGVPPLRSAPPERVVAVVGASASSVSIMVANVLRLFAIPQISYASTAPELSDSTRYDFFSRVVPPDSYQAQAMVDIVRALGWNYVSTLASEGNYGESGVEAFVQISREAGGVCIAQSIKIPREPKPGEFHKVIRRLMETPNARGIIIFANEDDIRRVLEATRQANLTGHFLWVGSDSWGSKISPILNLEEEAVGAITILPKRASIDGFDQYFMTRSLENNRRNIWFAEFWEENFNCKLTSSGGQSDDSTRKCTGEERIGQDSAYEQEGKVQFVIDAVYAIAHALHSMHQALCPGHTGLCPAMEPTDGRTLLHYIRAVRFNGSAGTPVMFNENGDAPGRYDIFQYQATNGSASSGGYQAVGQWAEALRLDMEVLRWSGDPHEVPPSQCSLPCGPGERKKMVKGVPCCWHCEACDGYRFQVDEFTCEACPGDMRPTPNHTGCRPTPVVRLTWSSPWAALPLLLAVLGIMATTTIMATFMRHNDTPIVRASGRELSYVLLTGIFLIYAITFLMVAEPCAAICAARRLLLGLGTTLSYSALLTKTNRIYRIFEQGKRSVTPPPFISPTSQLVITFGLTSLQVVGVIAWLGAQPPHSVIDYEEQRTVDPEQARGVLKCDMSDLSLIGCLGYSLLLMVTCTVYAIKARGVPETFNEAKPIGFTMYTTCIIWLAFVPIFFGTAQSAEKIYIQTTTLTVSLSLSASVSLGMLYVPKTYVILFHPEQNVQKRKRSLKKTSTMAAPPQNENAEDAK

| Structure (SMILES) | EC50 [1] [µM] | Ki [2] [µM] | EC50 [3] [µM] | Ki [4] [µM] | EC50 [5] [µM] | EC50 [6] [µM] | EC50 [7] [µM] | EC50 [8] [µM] |
| --- | --- | --- | --- | --- | --- | --- | --- | --- |
| N[C@H](C(=O)O)[C@H]1C[C@@H]1P(=O)(O)O | > 1000 | 7.4 | 9.4 | 63 | > 1000 | 13 | > 1000 | 700 |
| N[C@H](C(=O)O)[C@@H]1C[C@H]1P(=O)(O)O | > 1000 | 53 | 49 | 54 | > 1000 | 46 | > 1000 | > 1000 |
| N[C@@H](CCP(=O)(O)O)C(=O)O | > 1000 | 0.16 | 0.51 | 1.9 | > 1000 | 0.34 | > 1000 | 188 |
| N[C@@H](CCC(=O)O)C(=O)O [GLUTAMIC ACID] | – | 3.4 | 6.1 | 3.4 | – | 7.6 | – | > 1000 |
